This is an account of results in patent US9096584B2, “Compounds useful as inhibitors of ATR kinase” (Vertex Pharmaceuticals Incorporated, priority 2010, dated 2015).

The target in one assay is T1, full-length ATR (Homo sapiens, UniProt Q13535).
T1 construct: Assays were carried out at 25° C. in the presence of 5 nM full-length ATR
As to the kind of experiment: ATR Inhibition Assay (radioactive-phosphate incorporation). It counts as biochemical. The protocol: Compounds were screened for their ability to inhibit ATR kinase using a radioactive-phosphate incorporation assay. Assays were carried out in a mixture of 50 mM Tris/HCl (pH 7.5), 10 mM MgCl2 and 1 mM DTT. Final substrate concentrations were 10 μM [γ-33P]ATP (3mCi 33P ATP/mmol ATP, Perkin Elmer) and 800 μM target peptide ([…] (SEQ ID NO: 1)).
Assays were carried out at 25° C. in the presence of 5 nM full-length ATR. An assay stock buffer solution was prepared containing all of the reagents listed above, with the exception of ATP and the test compound of interest. 13.5 μL of the stock solution was placed in a 96 well plate followed by addition of 2 μL of DMSO stock containing serial dilutions of the test compound (typically starting from a final concentration of 15 μM with 3-fold serial dilutions) in duplicate (final DMSO concentration 7%). The plate was pre-incubated for 10 minutes at 25° C. and the reaction initiated by addition of 15 μL [γ-33P]ATP (final concentration 10 μM).
The reaction was stopped after […] by the addition of 30 μL 0.1M phosphoric acid containing 2 mM ATP. A multiscreen phosphocellulose filter 96-well plate (Millipore, Cat no. MAPHN0B50) was pretreated with 100 μL 0.2M phosphoric acid prior to the addition of 45 μL of the stopped assay mixture. The plate was washed with 5×200 μL 0.2M phosphoric acid. After drying, 100 μL Optiphase ‘SuperMix’ liquid scintillation cocktail (Perkin Elmer) was added to the well prior to scintillation counting (1450 Microbeta Liquid Scintillation Counter, Wallac).
After removing mean background values for all of the data points, Ki(app) data were calculated from non-linear regression analysis of the initial rate data using the Prism software package (GraphPad Prism version 3.0cx for Macintosh, GraphPad Software, San Diego Calif., USA).
Below is a chart showing the ATR Inhibition Ki values of compounds of the disclosure.

The test system of assay [1] is HCT116 colorectal cancer cells. As to the kind of experiment: Cisplatin Sensitization Assay (96 h cell viability MTS). The conditions noted are these: concentration of compound required to reduce the IC50 of Cisplatin alone by at least 3-fold, 96 h MTS. It counts as cell-based. The protocol: Compounds can be screened for their ability to sensitize HCT116 colorectal cancer cells to Cisplatin using a 96 h cell viability (MTS) assay. […] Compounds and Cisplatin are then both added simultaneously to the cell media in 2-fold serial dilutions from a top final concentration of 10 μM as a full matrix of concentrations in a final cell volume of 200 μl, and the cells are then incubated at 37° C. in 5% CO2. After 96 h, 40 μl of MTS reagent (Promega G358a) is added to each well and the cells are incubated for 1 h at 37° C. in 5% CO2.

T1 sequence (Q13535 whole entry): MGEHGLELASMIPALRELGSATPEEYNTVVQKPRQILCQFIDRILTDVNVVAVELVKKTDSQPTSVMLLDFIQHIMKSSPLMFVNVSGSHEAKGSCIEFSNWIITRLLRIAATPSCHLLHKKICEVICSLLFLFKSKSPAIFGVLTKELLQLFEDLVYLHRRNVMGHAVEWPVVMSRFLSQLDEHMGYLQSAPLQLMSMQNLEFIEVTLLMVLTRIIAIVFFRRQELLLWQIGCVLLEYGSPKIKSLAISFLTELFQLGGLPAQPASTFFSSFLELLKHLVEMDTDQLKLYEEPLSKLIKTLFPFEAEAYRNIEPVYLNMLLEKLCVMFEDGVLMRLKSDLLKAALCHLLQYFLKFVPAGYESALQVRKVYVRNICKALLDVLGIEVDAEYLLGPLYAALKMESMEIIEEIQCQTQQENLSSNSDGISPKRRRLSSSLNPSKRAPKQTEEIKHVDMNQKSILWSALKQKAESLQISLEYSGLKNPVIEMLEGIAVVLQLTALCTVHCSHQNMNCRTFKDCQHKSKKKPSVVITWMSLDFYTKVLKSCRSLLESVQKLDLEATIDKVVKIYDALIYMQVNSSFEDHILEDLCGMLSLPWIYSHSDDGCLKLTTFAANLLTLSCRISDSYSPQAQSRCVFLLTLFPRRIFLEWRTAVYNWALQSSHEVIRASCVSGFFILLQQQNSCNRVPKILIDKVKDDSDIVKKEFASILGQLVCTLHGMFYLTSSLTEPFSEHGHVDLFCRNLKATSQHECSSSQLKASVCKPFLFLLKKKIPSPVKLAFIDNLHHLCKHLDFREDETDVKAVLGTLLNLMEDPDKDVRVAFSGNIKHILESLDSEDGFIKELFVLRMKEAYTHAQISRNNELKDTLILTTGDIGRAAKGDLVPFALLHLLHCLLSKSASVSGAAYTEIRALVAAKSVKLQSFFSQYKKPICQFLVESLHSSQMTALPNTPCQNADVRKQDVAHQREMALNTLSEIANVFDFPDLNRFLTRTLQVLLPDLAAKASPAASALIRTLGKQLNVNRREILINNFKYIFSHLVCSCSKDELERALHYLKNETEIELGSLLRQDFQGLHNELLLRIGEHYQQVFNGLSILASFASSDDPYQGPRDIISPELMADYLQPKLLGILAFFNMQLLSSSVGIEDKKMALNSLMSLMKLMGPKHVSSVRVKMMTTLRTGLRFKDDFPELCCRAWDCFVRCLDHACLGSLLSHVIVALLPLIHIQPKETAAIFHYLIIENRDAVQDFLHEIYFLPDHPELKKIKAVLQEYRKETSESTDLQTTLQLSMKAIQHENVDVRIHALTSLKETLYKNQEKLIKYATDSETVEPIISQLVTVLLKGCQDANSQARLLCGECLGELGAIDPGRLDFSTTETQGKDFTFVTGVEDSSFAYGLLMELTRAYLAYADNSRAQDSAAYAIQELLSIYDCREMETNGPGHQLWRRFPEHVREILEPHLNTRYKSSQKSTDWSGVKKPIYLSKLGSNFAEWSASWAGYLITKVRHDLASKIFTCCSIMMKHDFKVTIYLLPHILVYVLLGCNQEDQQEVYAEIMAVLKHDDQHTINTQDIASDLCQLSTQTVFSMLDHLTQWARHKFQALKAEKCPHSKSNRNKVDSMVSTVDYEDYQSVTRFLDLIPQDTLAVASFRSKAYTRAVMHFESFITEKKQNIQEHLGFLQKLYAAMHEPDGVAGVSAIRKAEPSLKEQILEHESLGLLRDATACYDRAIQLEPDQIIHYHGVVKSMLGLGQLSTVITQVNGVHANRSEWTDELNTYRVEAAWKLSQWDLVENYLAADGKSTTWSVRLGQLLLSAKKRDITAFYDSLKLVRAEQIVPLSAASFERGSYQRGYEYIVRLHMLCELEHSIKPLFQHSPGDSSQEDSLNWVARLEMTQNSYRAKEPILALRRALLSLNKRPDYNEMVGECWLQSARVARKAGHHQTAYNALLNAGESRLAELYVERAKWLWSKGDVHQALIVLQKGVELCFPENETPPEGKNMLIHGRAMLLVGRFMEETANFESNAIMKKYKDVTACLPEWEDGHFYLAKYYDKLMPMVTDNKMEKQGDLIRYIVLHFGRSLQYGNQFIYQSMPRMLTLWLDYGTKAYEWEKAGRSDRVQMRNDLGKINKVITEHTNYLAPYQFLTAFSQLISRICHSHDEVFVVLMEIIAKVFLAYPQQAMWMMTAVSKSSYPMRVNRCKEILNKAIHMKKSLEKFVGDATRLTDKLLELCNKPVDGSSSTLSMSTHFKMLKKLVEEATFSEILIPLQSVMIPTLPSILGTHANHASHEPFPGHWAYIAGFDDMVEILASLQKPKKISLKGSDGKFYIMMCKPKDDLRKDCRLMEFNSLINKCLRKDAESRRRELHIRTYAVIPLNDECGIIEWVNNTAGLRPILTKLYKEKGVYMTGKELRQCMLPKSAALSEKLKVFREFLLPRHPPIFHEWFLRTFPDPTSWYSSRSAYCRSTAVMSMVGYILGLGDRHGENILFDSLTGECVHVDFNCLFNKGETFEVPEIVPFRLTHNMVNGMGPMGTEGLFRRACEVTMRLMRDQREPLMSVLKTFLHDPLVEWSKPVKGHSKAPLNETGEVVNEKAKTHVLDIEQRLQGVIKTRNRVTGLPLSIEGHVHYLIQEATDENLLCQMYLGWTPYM

For `CCS(=O)(=O)N1CC=C(c2cnc(N)c(-c3nnc(-c4ccccc4)o3)c2)CC1` [III-4, 5-(1-Ethylsulfonyl-3,6-dihydro-2H-pyridin-4-yl)-3-(5-phenyl-1,3,4-oxadiazol-2-yl)pyridin-2-amine], the Ki on full-length ATR fell in the range of 10 to 100 nM.
With `Nc1ncc(-c2cccnc2)cc1C(=O)Nc1ccccc1` [III-7, 2-Amino-N-phenyl-5-(3-pyridyl)pyridine-3-carboxamide], on full-length ATR, the Ki was 100 to 5000 nM.
Same read-out and setting: as for `CNCc1ccc(-c2nnc(-c3cc(-c4ccc(S(=O)(=O)[C@@H]5CCOC5)cc4)cnc3N)o2)cc1` [III-1, 3-[5-[4-(Methylaminomethyl)phenyl]-1,3,4-oxadiazol-2-yl]-5-[4-[(3R)-tetrahydrofuran-3-yl]sulfonylphenyl]pyridin-2-amine], the figure is at most 10 nM; as for `CNCc1ccc(-c2nnc(-c3cc(-c4cnc(S(=O)(=O)C(C)C)cn4)cnc3N)o2)cc1` [III-5, 5-(5-Isopropylsulfonylpyrazin-2-yl)-3-[5-[4-(methylaminomethyl)phenyl]-1,3,4-oxadiazol-2-yl]pyridin-2-amine], at most 10 nM.
The same measure, in the same setting: next, `CS(=O)(=O)c1ccc(-c2cnc(N)c(-c3nnc(-c4ccccc4)o3)c2)cc1` [III-3, 5-(4-(Methylsulfonyl)phenyl)-3-(5-phenyl-1,3,4-oxadiazol-2-yl)pyridin-2-amine]: 10 to 100 nM.
For the compound `CNCc1ccc(-c2cc(-c3cc(-c4ccc(S(=O)(=O)C(C)C)cn4)cnc3N)on2)c(F)c1` [III-8, 3-[3-[2-Fluoro-4-(methylaminomethyl)phenyl]isoxazol-5-yl]-5-(5-isopropylsulfonyl-2-pyridyl)pyridin-2-amine], the Ki on full-length ATR is at most 10 nM. For the same compound, the “CP3 Shift” value in assay [1] is “.234 µM”.
With `Nc1ncc(-c2ccc(C(=O)N3CCCNCC3)cc2)cc1-c1nnc(-c2ccccc2)o1` [III-2, [4-[6-Amino-5-(5-phenyl-1,3,4-oxadiazol-2-yl)-3-pyridyl]phenyl]-(1,4-diazepan-1-yl)methanone], the Ki on full-length ATR lay within 10 to 100 nM.
The same measure, in the same setting: next, `Cc1ccc(-c2cc(-c3cc(-c4ccc(S(=O)(=O)C(C)C)cn4)cnc3N)on2)cc1` [III-6, 5-(5-Isopropylsulfonyl-2-pyridyl)-3-[3-(p-tolyl)isoxazol-5-yl]pyridin-2-amine]: 10 to 100 nM.
In the case of `CNCc1ccc(-c2nnc(-c3cc(-c4ccc(S(=O)(=O)C(C)C)cc4)cnc3N)o2)cc1` [III-11, 5-(4-Isopropylsulfonylphenyl)-3-[5-[4-(methylaminomethyl)phenyl]-1,3,4-oxadiazol-2-yl]pyridin-2-amine], at full-length ATR, the inhibition constant (Ki) was at most 10 nM. In assay [1], the “CP3 Shift” value is “.156 µM”.
The matching figures for `CNCc1ccc(-c2cc(-c3cc(-c4ccc(S(=O)(=O)C(C)C)cn4)cnc3N)on2)cc1` [III-12, 5-(5-Isopropylsulfonyl-2-pyridyl)-3-[3-[4-(methylaminomethyl)phenyl]isoxazol-5-yl]pyridin-2-amine]: at most 10 nM and “.156 µM”.
`CNCc1ccc(-c2nnc(-c3cc(-c4ccsc4)cnc3N)o2)cc1` [III-9, 3-[5-[4-(Methylaminomethyl)phenyl]-1,3,4-oxadiazol-2-yl]-5-(3-thienyl)pyridin-2-amine]: the Ki on full-length ATR is 10 to 100 nM.
In the case of `CNCc1ccc(-c2nnc(-c3cc(-c4ccc(S(=O)(=O)C(C)C)cn4)cnc3N)o2)cc1` [III-10, 5-(5-Isopropylsulfonyl-2-pyridyl)-3-[5-[4-(methylaminomethyl)phenyl]-1,3,4-oxadiazol-2-yl]pyridin-2-amine], the Ki at full-length ATR was at most 10 nM. For the same compound, the “CP3 Shift” value in assay [1] is “.078 µM”.

What is called Ki is the equilibrium dissociation constant of an inhibitor or competing ligand from its target.
